We go through 1 molecule from paper PMC6934184, “Selective DNA-PKcs inhibition extends the therapeutic index of localized radiotherapy and chemotherapy” (The Journal of Clinical Investigation, 2019).

The assay addresses T1, PHKG1 (Homo sapiens, UniProt Q16816).
T1 construct: purchased Thermo Fisher Scientific (Life Technologies) SelectScreen
In words: SelectScreen Z'LYTE. It is filed as biochemical. The procedure, abridged: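 Percent values come from Thermo SelectScreen profiling of NU5455, combining activity and binding assays. CSF1R was run in Z'LYTE format at Km app ATP, and CAMK1 in Adapta format with ATP listed at 10.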

T1 sequence (Q16816 whole entry): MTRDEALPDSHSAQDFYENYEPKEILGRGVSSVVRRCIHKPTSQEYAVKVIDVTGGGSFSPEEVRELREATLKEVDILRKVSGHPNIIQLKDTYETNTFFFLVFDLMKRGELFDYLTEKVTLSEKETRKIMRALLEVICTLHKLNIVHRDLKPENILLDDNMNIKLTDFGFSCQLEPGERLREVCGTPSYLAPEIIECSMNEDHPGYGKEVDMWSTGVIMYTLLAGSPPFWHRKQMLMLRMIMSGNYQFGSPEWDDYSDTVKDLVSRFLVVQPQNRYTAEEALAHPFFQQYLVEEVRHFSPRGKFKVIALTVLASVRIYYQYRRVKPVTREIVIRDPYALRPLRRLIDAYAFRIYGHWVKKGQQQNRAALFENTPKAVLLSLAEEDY

As usually defined, the inhibition is the relative decrease from the control value, in per cent. Take `CN(C(=O)CN1CCOCC1)c1ccc2sc3c(-c4cccc5c(=O)cc(N6CC7CCC(C6)O7)oc45)cccc3c2c1` [NU5455]: the inhibition at 1 µM is -5%.
